Experimental findings from article PMC6720008, “A Novel Peptide Ameliorates LPS-Induced Intestinal Inflammation and Mucosal Barrier Damage via Its Antioxidant and Antiendotoxin Effects” (International Journal of Molecular Sciences, 2019) are described below.

Where two headings read alike, the source gives them in different places. Ends that are not written are not given here.

Data set [1] is described as follows: Ex vivo stability in plasma. The format is in vitro ADME, rat. As for the experimental part:
Figure 2 The mean plasma concentrations of LL-37, TP5, and LTP over times. The concentration of each target peptide in plasma in vitro at the selected times was quantified by HPLC.
Rat plasma was collected from healthy adult rats by centrifugation of whole blood samples. LL-37, TP5, and LTP were directly added to rat plasma (10 μg/mL), after which the plasma samples were incubated in a 37 °C water bath. At different times, the samples were collected into pre-chilled tubes which contained 1 mL of acidic acetone (hydrochloric acid/acetone/H2O, 1:40:5, by volume). Subsequently, the mixture was centrifuged at 2 × 10^4 rpm at 4 °C for 20 min. The precipitates were dried in vacuo, after which the dried precipitates were dissolved in 0.5 mL of 1 M acetic acid. The peptide analysis was carried out according to the protocol for the study of TP5 using HPLC [64]. The half-lives of the peptides were calculated by a logarithm-linear regression analysis of the peptide concentrations.

The test system of data set [2] is RAW264.7 macrophage cells. The settings on record: CCK-8, 24 h or 72 h.
Protocol: RAW264.7 cells were pre-seeded in DMEM medium overnight. The cells were treated with various concentrations of peptides or without peptides at 37 °C and 5% CO2 for 24 h (A) or 72 h (B). They were incubated with CCK-8 solution for 4 h, and then, they were measured at 450 nm. Data are given as the mean value ± standard error from eight biological replicates. *: p ≤ 0.05, **: p ≤ 0.01, ***: p ≤ 0.001.
The murine macrophage cell line RAW264.7 was purchased from the Shanghai Cell Bank, the Institute of Cell Biology, China Academy of Sciences (Shanghai, China). RAW264.7 cells were cultured in Dulbecco’s modified Eagle’s medium (DMEM; Hyclone, Logan, UT, USA) supplemented with 10% (v/v) foetal bovine serum (Bioscience) and 1% (v/v) penicillin/streptomycin (Hyclone) in a 37 °C humidified incubator containing 5% CO2.
The viability of peptide-treated RAW264.7 cells was measured using the Cell Counting Kit-8 (CCK-8) Assay Kit (Dojindo, Japan) [63]. The cells were pre-seeded on a 96-well plate at a density of 3 × 10^4 cells/mL overnight. […] The absorbance at 450 nm was measured with a microplate reader. Cell viability was calculated as: Cell viability (%) = (OD450 (sample)/OD450(control)) × 100%(1) where OD450 (sample) is the absorbance at 450 nm of the cells with peptides treated, and OD450 (control) is the absorbance at 450 nm of the cells without peptides treated.
The nature of data set [3]: In vitro LPS neutralization, chromogenic end-point TAL assay. The format is biochemical. The settings on record: LPS 1.0 U/mL, peptide 0 to 64 μg/mL, 37 °C 15 min, absorbance 540 nm, three biological replicates. Here is the method: Figure 9 LPS neutralization activity of LTP in vitro and in vivo. (A) The LPS concentration in mouse plasma. (B) In-vitro LPS neutralization by LTP. LPS neutralization activity of LTP, LL-37, TP5, and PMB were determined using the chromogenic in vitro TAL assay. Data are presented as the mean value ± standard error from three biological replicates. *: p ≤ 0.05, ****: p ≤ 0.0001.
The neutralization of LPS by the peptides was detected using a quantitative Chromogenic End-point Tachypleus Amebocyte Lysate (CE TAL) assay with the QCL-1000 kit (Xiamen, China). Experiments were carried out according to the institutional guidelines. A constant concentration of LPS (1.0 U/mL final concentration) was incubated with different concentrations of polymyxin B (PMB) or the peptides (0 to 64 μg/mL final concentration) at 37 °C for 15 min in the wells of pyrogenic sterile microliters plates. Subsequently, the mixtures were incubated at 37 °C for 6 min in the presence of TAL assay reagent, after which the absorbances were measured at 540 nm.

The mark [4] stands for this setting: rat plasma, peptide 10 μg/mL, 37 °C water bath, HPLC, logarithm-linear regression, mean ± standard error, three biological replicates, read-out: t1/2.

In data set [1] (rat, plasma), `CC[C@H](C)[C@H](NC(=O)[C@H](CCCCN)NC(=O)[C@H](CCC(=O)O)NC(=O)[C@H](CCCCN)NC(=O)[C@H](CO)NC(=O)[C@H](CCCCN)NC(=O)[C@H](CCCNC(=N)N)NC(=O)[C@H](Cc1ccccc1)NC(=O)[C@H](Cc1ccccc1)NC(=O)[C@H](CC(=O)O)NC(=O)CNC(=O)[C@H](CC(C)C)NC(=O)[C@@H](N)CC(C)C)C(=O)NCC(=O)N[C@@H](CCCCN)C(=O)N[C@@H](CCC(=O)O)C(=O)N[C@@H](Cc1ccccc1)C(=O)N[C@@H](CCCCN)C(=O)N[C@@H](CCCNC(=N)N)C(=O)N[C@H](C(=O)N[C@H](C(=O)N[C@@H](CCC(N)=O)C(=O)N[C@@H](CCCNC(=N)N)C(=O)N[C@H](C(=O)N[C@@H](CCCCN)C(=O)N[C@@H](CC(=O)O)C(=O)N[C@@H](Cc1ccccc1)C(=O)N[C@@H](CC(C)C)C(=O)N[C@@H](CCCNC(=N)N)C(=O)N[C@@H](CC(N)=O)C(=O)N[C@@H](CC(C)C)C(=O)N[C@H](C(=O)N1CCC[C@H]1C(=O)N[C@@H](CCCNC(=N)N)C(=O)N[C@H](C(=O)N[C@@H](CCC(=O)O)C(=O)N[C@@H](CO)C(=O)O)[C@@H](C)O)C(C)C)[C@@H](C)CC)C(C)C)[C@@H](C)CC` [LL-37] returned a half-life at 10 μg/mL of 242 ± 45.1 min.
As for IGKEFKRIVQRIKDFLRNLVPRTERKDVY [LTP], the half-life in plasma t1/2 is 240 min. Moreover, in data set [2] (eight biological replicates), the “cytotoxicity on RAW264.7 cells compared with the parental peptides” value is “lower cytotoxicity than LL-37 and TP5”. In addition, the “cytotoxicity towards RAW264.7 cells” value in data set [2] (highest concentration of 60 μg/mL, 37 °C, 5% CO2, absorbance 450 nm, mean of eight biological replicates) is reported as “no significant cytotoxicity”. In addition, the half-life at 10 μg/mL in data set [1] (setting [4]) was found to be 240 ± 55.1 min.
Regarding RKDVY [TP5, Thymopentin], the half-life at 10 μg/mL in data set [1] (setting [4]) worked out at 1.32 ± 0.24 min. Also, in data set [1] (rat plasma, peptide 10 μg/mL, 37 °C, HPLC, three biological replicates, read-out: decrease of plasma concentration after incubation for 5 min), the metabolised at 5 min, 10 μg/mL was found to be 95%.
Turning to polymyxin B [PMB], the “50% binding rate value (LPS neutralization)” value in data set [3] was 1 µg/mL.
